# Laboratory results reported in patent US7691844B2, “Nonpeptide substituted spirobenzoazepines as vasopressin antagonists” (Ortho-McNeil Pharmaceutical, Inc., priority 2000, dated 2010).
# Experiments:
# [1] = target: human V2 receptor (Homo sapiens, UniProt P30518); assay: In-vitro receptor binding assay (3H-arginine-8-vasopressin), V2; details: for inhibition at 1 µM / Receptor Binding V2 (% Inh. @ concentration in μM): @ 1 μM
# Summary of the method: (§1)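 Radioligand is 3H-arginine-8-vasopressin, incubated with receptor for one hour at room temperature, then filtered on GF/C plates and counted by scintillation. Non-specific binding was defined with 1.25 μM vasopressin, and results are given as % inhibition.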
# [2] = target: V1a (Homo sapiens, UniProt P37288); assay: In-vitro receptor binding assay (3H-arginine-8-vasopressin), V1a
# Sequence of V1a (P37288 whole entry): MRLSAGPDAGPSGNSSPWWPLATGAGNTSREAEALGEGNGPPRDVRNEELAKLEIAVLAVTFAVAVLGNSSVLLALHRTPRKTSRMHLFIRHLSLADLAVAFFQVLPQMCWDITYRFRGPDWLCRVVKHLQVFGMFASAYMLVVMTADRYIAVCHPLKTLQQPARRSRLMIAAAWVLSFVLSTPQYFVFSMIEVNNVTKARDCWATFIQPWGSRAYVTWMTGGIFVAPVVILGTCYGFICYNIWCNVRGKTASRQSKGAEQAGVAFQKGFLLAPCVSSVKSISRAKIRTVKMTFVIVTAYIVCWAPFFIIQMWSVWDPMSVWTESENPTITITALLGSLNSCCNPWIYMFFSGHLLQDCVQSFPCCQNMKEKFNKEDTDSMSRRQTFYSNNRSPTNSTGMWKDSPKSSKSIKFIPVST
# Summary of the method: as §1
# [3] = read-out: Receptor Binding V2 (% Inh. @ concentration in μM)
# [4] = read-out: Receptor Binding V1a (% Inh. @ concentration in μM)
# Sequence of human V2 receptor (P30518 whole entry): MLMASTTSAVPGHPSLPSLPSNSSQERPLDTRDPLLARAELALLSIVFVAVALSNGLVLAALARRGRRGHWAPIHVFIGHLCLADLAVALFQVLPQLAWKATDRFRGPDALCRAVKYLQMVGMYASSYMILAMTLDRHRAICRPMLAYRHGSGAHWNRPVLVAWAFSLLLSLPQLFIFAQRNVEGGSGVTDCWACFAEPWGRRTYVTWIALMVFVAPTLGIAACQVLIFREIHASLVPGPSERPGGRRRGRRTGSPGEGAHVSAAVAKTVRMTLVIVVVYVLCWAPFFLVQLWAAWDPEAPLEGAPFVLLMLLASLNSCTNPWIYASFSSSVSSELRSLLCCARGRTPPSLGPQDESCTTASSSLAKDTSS
Compound,"inhibition at 1 µM [1, 3] [%]",IC50 [2] [µM],other results
"COc1cc(C(=O)N2CCC3(C=C(C(=O)NCCN(C)C)CC3)Cc3ccccc32)ccc1-n1ccc(CO)c1 (stereo not drawn) [Compound 190, 4-[3-Methoxy-4-(3-hydroxymethylpyrrol-1-yl)benzoyl]-3′-[2-(N,N-dimethylamino)ethylcarboxamido]-4-aza-[6,4]-spiro-[5,6]-benzoundec-2′-ene]",28,0.008,
CN(C)CCNC(=O)C1=CC2(CC1)CCN(C(=O)c1ccc(N)cc1)c1ccccc1C2 (stereo not drawn) [Compound 191],,1.2,Receptor Binding V2 (% Inh. @ concentration in μM) [1]: 15% @ 1
CN(C)CCNC(=O)C1=C[C@@]2(CC1)CCN(C(=O)c1ccc(N)cc1)c1ccccc1C2 [Compound 192],0,5.4,
CN(C)CCNC(=O)C1=CC2(CC1)CCN(C(=O)c1ccc(N)cc1)c1ccccc1C2 (stereo not drawn) [Compound 193],,1.1,Receptor Binding V2 (% Inh. @ concentration in μM) [1]: 0% @ 1
COc1cc(N)ccc1C(=O)N1CCC2(C=C(C(=O)NCCN(C)C)CC2)Cc2ccccc21 (stereo not drawn) [Compound 194],6,,"inhibition at 1 µM ([2]; @ 1 μM, read-out: Receptor Binding V1a (% Inh. @ concentration in μM)): 7%"
COc1cc(-n2ccc(C=O)c2)ccc1C(=O)N1CCC2(C=C(C(=O)NCCN(C)C)CC2)Cc2ccccc21 (stereo not drawn) [Compound 195],18,0.3,
COc1cc(-n2ccc(CO)c2)ccc1C(=O)N1CCC2(C=C(C(=O)NCCN(C)C)CC2)Cc2ccccc21 (stereo not drawn) [Compound 196],34,0.034,
COc1cc(C(=O)N2CC[C@]3(C=C(C(=O)NCCN(C)C)CC3)Cc3ccccc32)ccc1-n1ccc(CO)c1 [Compound 197],,0.006,"inhibition at 0.1 µM [1, 3]: 0%"
COc1cc(C(=O)N2CC[C@@]3(C=C(C(=O)NCCN(C)C)CC3)Cc3ccccc32)ccc1-n1ccc(CO)c1 [Compound 198],,0.016,"inhibition at 0.1 µM [1, 3]: 0%"
O=C(O)c1ccn(-c2ccc(C(=O)N3CCC4(C=CCCC4)Cc4ccccc43)cc2)c1 (stereo not drawn) [Compound 199],,,"inhibition at 0.1 µM [1, 3]: 2%; inhibition at 0.1 µM [2, 4]: 0%"
CN(C)CCNC(=O)C1=CC2(CC1)CCN(C(=O)c1ccc(-n3ccc(C=O)c3)cc1)c1ccccc1C2 (stereo not drawn) [Compound 201],,,"inhibition at 0.1 µM [1, 3]: 0%; inhibition at 0.1 µM [2, 4]: 44%"
Cc1ccn(-c2ccc(C(=O)N3CCC4(C=C(C(=O)NCCN(C)C)CC4)Cc4ccccc43)cc2)n1 (stereo not drawn) [Compound 209],43,0.055,
CON(C)Cc1ccn(-c2ccc(C(=O)N3CCC4(C=C(C(=O)NCCN(C)C)CC4)Cc4ccccc43)cc2)c1 (stereo not drawn) [Compound 210],22,,"inhibition at 0.125 µM [2, 4]: 6%"
COC(=O)C1=CC2(CC1)CCN(C(=O)c1ccc(-n3ccc(C)n3)c(N)c1)c1ccccc1C2 (stereo not drawn) [Compound 211],45,,"inhibition at 0.125 µM [2, 4]: 55%"
COC(=O)C1=CC2(CC1)CCN(C(=O)c1ccc(-n3nccc3C)c(N)c1)c1ccccc1C2 (stereo not drawn) [Compound 212],16,,"inhibition at 0.125 µM [2, 4]: 29%"
COC(=O)C1=CC2(CC1)CCN(C(=O)c1ccc(-n3ccc(C)n3)c(N(C)C)c1)c1ccccc1C2 (stereo not drawn) [Compound 213],55,,"inhibition at 0.125 µM [2, 4]: 63%"
COC(=O)C1=CC2(CC1)CCN(C(=O)c1ccc(NC(=O)c3cc(F)ccc3F)cc1)c1ccccc1C2 (stereo not drawn) [Compound 218],,0.046,"inhibition at 0.2 µM ([1]; @ 0.2 μM, read-out: Receptor Binding V2 (% Inh. @ concentration in μM)): 23%"
"CC(=O)N1CCC(Oc2ccc(C(=O)N3CCC4(C=CCCC4)Cc4ccccc43)cc2)CC1 (stereo not drawn) [Compound 224, 4-(4-(N-acetylpiperidin-4-yloxy)benzoyl)-4-aza-[6,5]-spiro-[5,6]-benzododec-2′-ene]",,,"Receptor Binding V2 (% Inh.) ([1]; concentration not given): 0%; inhibition at 0.1 µM [2, 4]: 41%"
